pEC50, pIC50: −log10 of the molar value.
Assays:
[1] = target: T1, Progesterone Receptor PR-B (Homo sapiens, UniProt P06401); experiment: Antagonism of Progesterone Receptor PR-B, transactivation assay; format: cell-based; settings: PR-B transactivation assay as in WO 02/054064; for pIC50: read-out: Antagonistic activity IC50
T1 construct: expressed in transfected cells; From own knowledge of the cited Fuhrmann et al. 2000: SK-N-MC cells stably transfected with PR-B and an MMTV-luciferase reporter
T1 sequence (P06401 1-933): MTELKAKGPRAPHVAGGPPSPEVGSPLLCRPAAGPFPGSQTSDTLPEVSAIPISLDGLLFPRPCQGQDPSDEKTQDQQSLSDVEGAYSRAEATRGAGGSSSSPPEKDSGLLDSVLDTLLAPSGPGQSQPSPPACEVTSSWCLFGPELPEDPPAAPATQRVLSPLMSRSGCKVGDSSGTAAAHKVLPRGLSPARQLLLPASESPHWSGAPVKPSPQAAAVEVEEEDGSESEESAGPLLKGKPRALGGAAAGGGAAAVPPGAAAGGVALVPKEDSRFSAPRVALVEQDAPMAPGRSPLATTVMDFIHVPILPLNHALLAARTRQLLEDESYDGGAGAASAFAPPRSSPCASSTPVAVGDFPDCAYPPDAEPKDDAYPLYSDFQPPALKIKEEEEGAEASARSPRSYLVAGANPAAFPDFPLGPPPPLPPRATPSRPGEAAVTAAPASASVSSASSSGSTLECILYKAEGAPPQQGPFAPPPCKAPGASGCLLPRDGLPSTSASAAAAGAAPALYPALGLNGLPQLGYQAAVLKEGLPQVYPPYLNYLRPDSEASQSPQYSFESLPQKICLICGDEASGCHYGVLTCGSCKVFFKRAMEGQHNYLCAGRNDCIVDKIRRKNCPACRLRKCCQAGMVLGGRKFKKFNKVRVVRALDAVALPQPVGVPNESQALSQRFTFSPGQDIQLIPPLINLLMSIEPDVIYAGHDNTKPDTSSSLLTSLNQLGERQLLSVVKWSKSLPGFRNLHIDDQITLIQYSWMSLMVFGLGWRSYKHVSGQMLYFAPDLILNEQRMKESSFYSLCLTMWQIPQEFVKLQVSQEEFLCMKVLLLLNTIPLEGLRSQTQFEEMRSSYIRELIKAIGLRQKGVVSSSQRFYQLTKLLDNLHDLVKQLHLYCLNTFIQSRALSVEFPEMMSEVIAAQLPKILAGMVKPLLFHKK
Protocol: Antagonism of Progesterone Receptor PR-B
The transactivation assay is performed as described in WO 02/054064.

[2] = target: T1, Progesterone Receptor PR-B; experiment: Agonism of Progesterone Receptor PR-B, transactivation assay; format: cell-based; settings: PR-B transactivation assay as in Fuhrmann et al.
Protocol: Agonism of Progesterone Receptor PR-B
The transactivation assay is performed as described in Fuhrmann et al. (Fuhrmann, U.; Hess-Stump, H.; Cleve, A.; Neef, G.; Schwede, W.; Hoffmann, J.; Fritzemeier, K.-H., Chwalisz, K.; Journal of Medicinal Chem., 43, 26, 2000, 5010-5016).

| Compound | Antagonistic activity Efficacy [1] | pIC50 [1] | Agonistic activity Efficacy [2] | pEC50 ([2]; read-out: Agonistic activity EC50) |
| --- | --- | --- | --- | --- |
| O=C1OCc2cc(NC(=O)C(O)(C#Cc3ccc(O)cc3)CC3(c4cc(C(F)(F)F)ccc4F)CC3)ccc21 (racemic) [Example 7, rac-5-{2-Hydroxy-2-[(4-hydroxyphenyl)ethinyl]-3-[1-(2-fluoro-5-trifluoromethylphenyl)-cyclopropyl]-propionylamino}phthalide] | 82% | 8.40 | 11% | 8.70 |
| CCCC#CC(O)(CC1(c2cc(C(F)(F)F)ccc2F)CC1)C(=O)Nc1ccc2c(c1)COC2=O (racemic) [Example 9, rac-5-{2-Hydroxy-3-[1-(2-fluoro-5-trifluoromethylphenyl)-cyclopropyl]-2-(pentin-1-yl)-propionylamino}phthalide] | 96% | 8.52 | 3% | – |
| O=C1OCc2cc(NC(=O)C(O)(C#CCO)CC3(c4cc(C(F)(F)F)ccc4F)CC3)ccc21 (racemic) [Example 13, rac-5-{2-Hydroxy-3-[1-(2-fluoro-5-trifluoromethylphenyl)-cyclopropyl]-2-[(3-hydroxy)propin-1-yl]-propionylamino}phthalide] | 92% | 8.52 | 7% | – |
| O=C1OCc2cc(NC(=O)C(O)(C#Cc3ccccc3)CC3(c4cc(C(F)(F)F)ccc4F)CC3)ccc21 (single isomer, unassigned; (-)) [Example 3b, (−)-5-{2-Hydroxy-3-[1-(2-fluoro-5-trifluoromethylphenyl)-cyclopropyl]-2-(phenylethinyl)-propionylamino}phthalide] | 97% | 9.40 | 2% | – |
